In patent US20070128217A1 (priority 2003, published 2007):

Tests used:
[1] = tested on: control sera (pooled serum of ten healthy LUMC hospital workers; commercial negative donor pooled serum from the Dutch bloodbank); assay type: binding, human; set-up: Binding of Control serum LUMC to linear peptides / Binding of Control serum Blood-bank to linear peptides / Binding of Control serum LUMC to looped peptides / Binding of Control Serum Blood-Bank to Looped peptides / Binding of Control serum LUMC to linear peptides of the protein M of SARS-CoV Urbani / Binding of Control serum Blood-bank to linear peptides of the protein M of SARS-CoV Urbani / Binding of Control serum LUMC to looped peptides of the protein M of SARS-CoV Urbani / Binding of Control Serum Blood-Bank to Looped peptides of the protein M of SARS-CoV Urbani: unit not given here
[2] = tested on: rabbit serum obtained by immunizing a rabbit with the SARS-CoV strain Frankfurt 1; assay type: binding; set-up: Binding of a rabbit serum to linear peptides / Binding of a rabbit serum to looped peptides / Rabbit serum linear peptides / Rabbit serum looped peptides / Binding of a rabbit serum to linear peptides of protein N of SARS-CoV Urbani (Rabbit serum linear peptides) / Binding of a rabbit serum to looped/cyclic peptides of protein N of SARS-CoV Urbani (Rabbit serum looped peptides): unit not given here
[3] = tested on: recombinant human anti-SARS-CoV antibody 03-018; assay type: binding; set-up: Binding of antibody 03-018 to linear peptides of the N protein of SARS-CoV Urbani / Binding of antibody 03-018 to looped/cyclic peptides of the N protein of SARS-CoV Urbani: unit not given here
[4] = tested on: antibodies in sera from SARS patients (sera 1a, 1b, 2, 6, 37, 62, London, SARS-yellow, SARS-green); assay type: binding, human; set-up: Binding of serum 6 to linear peptides of protein X1 of SARS-CoV Urbani / Binding of serum 37 to linear peptides of protein X1 of SARS-CoV Urbani / Binding of serum 6 to looped/cyclic peptide (PEPSCAN-ELISA) / Binding of serum 37 to looped/cyclic peptide (PEPSCAN-ELISA) / Binding of serum 37 to looped/cyclic peptides of protein X1 of SARS-CoV Urbani / Binding of serum 6 to linear peptides of protein X2 / Binding of serum 37 to linear peptides of protein X2 / Binding of serum 37 to looped/cyclic peptides of protein X2 of SARS-CoV Urbani / Binding of serum 6 to linear peptides of protein M of SARS-CoV Urbani / Binding of serum 37 to linear peptides of protein M of SARS-CoV Urbani / Binding of serum 6 to looped/cyclic peptides of protein M of SARS-CoV Urbani / Binding of serum 37 to looped/cyclic peptides of protein M of SARS-CoV Urbani / Binding of serum 6 to linear peptides of protein X3 of SARS-CoV Urbani / Binding of serum 37 to linear peptides of protein X3 of SARS-CoV Urbani / Binding of serum 37 to looped/cyclic peptides of protein X3 of SARS-CoV Urbani / Binding of serum 6 to linear peptides of protein X4 of SARS-CoV Urbani / Binding of serum 37 to linear peptides of protein X4 of SARS-CoV Urbani / Binding of serum 37 to looped/cyclic peptides of protein X4 of SARS-CoV Urbani / Binding of serum 6 to linear peptides of protein X5 of SARS-CoV Urbani / Binding of serum 37 to linear peptides of protein X5 of SARS-CoV Urbani / Binding of serum 37 to looped/cyclic peptides of protein X5 of SARS-CoV Urbani / Binding of serum 6 to linear peptides of protein N of SARS-CoV Urbani / Binding of serum 37 to linear peptides of protein N of SARS-CoV Urbani / Binding of serum 6 to linear peptide (PEPSCAN-ELISA) / Binding of serum 1a to looped/cyclic peptides of protein N of SARS-CoV Urbani / Binding of serum 1b to looped/cyclic peptides of protein N of SARS-CoV Urbani / Binding of serum 2 to looped/cyclic peptides of protein N of SARS-CoV Urbani / Binding of serum 6 to looped/cyclic peptides of protein N of SARS-CoV Urbani / Binding of serum 37 to looped/cyclic peptides of protein N of SARS-CoV Urbani / Binding of serum 62 to looped/cyclic peptides of protein N of SARS-CoV Urbani / Binding of serum London to looped/cyclic peptides of protein N of SARS-CoV Urbani / Binding of serum SARS-green to looped/cyclic peptides of protein N of SARS-CoV Urbani: unit not given here

NVILLNKHIDAYKTF
Control Serum Blood-Bank Looped peptides [1]: 0.8
Control serum Blood-bank linear peptides [1]: 0.7
Control serum LUMC linear peptides [1]: 0.7
Control serum LUMC looped peptides [1]: 0.7
Binding of a rabbit serum to linear peptides of protein N of SARS-CoV Urbani (Rabbit serum linear peptides) [2]: 0.2
Binding of a rabbit serum to looped/cyclic peptides of protein N of SARS-CoV Urbani (Rabbit serum looped peptides) [2]: 0.6
Binding of antibody 03-018 to linear peptides of the N protein of SARS-CoV Urbani [3]: 0.1
Binding of antibody 03-018 to looped/cyclic peptides of the N protein of SARS-CoV Urbani [3]: 0.2
Binding of serum 1a to linear peptides of protein N of SARS-CoV Urbani [4]: 0.2
Binding of serum 1a to looped/cyclic peptides of protein N of SARS-CoV Urbani [4]: 0.5
Binding of serum 1b to linear peptides of protein N of SARS-CoV Urbani [4]: 0.1
Binding of serum 1b to looped/cyclic peptides of protein N of SARS-CoV Urbani [4]: 0.3
Binding of serum 2 to linear peptides of protein N of SARS-CoV Urbani [4]: 0.2
Binding of serum 2 to looped/cyclic peptides of protein N of SARS-CoV Urbani [4]: 0.4
Binding of serum 6 to linear peptides of protein N of SARS-CoV Urbani [4]: 0.1
Binding of serum 6 to looped/cyclic peptides of protein N of SARS-CoV Urbani [4]: 0.3
Binding of serum 37 to linear peptides of protein N of SARS-CoV Urbani [4]: 0.7
Binding of serum 37 to looped/cyclic peptides of protein N of SARS-CoV Urbani [4]: 0.7
Binding of serum 62 to linear peptides of protein N of SARS-CoV Urbani [4]: 0.6
Binding of serum 62 to looped/cyclic peptides of protein N of SARS-CoV Urbani [4]: 0.7
Binding of serum London to linear peptides of protein N of SARS-CoV Urbani [4]: 0.5
Binding of serum London to looped/cyclic peptides of protein N of SARS-CoV Urbani [4]: 0.9
Binding of serum SARS-green to linear peptides of protein N of SARS-CoV Urbani [4]: 0.3
Binding of serum SARS-green to looped/cyclic peptides of protein N of SARS-CoV Urbani [4]: 0.3
Binding of serum SARS-yellow to linear peptides of protein N of SARS-CoV Urbani [4]: 0.6
Binding of serum SARS-yellow to looped/cyclic peptides of protein N of SARS-CoV Urbani [4]: 0.7

NVTQAFGRRGPEQTQ
Binding of Control Serum Blood-Bank to Looped peptides [1]: 0.5
Binding of Control serum Blood-bank to linear peptides [1]: 0.7
Binding of Control serum LUMC to linear peptides [1]: 0.7
Binding of Control serum LUMC to looped peptides [1]: 0.5
Recognition of the peptide by the rabbit serum [2]: recognized
Binding of antibody 03-018 to linear peptides of the N protein of SARS-CoV Urbani [3]: 0.1
Binding of antibody 03-018 to looped/cyclic peptides of the N protein of SARS-CoV Urbani [3]: 0.2
Binding of serum 1a to linear peptide (PEPSCAN-ELISA) [4]: 0.2
Binding of serum 1a to looped/cyclic peptides of protein N of SARS-CoV Urbani [4]: 0.3
Binding of serum 1b to linear peptide (PEPSCAN-ELISA) [4]: 0.1
Binding of serum 1b to looped/cyclic peptides of protein N of SARS-CoV Urbani [4]: 0.2
Binding of serum 2 to linear peptide (PEPSCAN-ELISA) [4]: 0.2
Binding of serum 2 to looped/cyclic peptides of protein N of SARS-CoV Urbani [4]: 0.3
Binding of serum 6 to linear peptide (PEPSCAN-ELISA) [4]: 0.2
Binding of serum 6 to looped/cyclic peptides of protein N of SARS-CoV Urbani [4]: 0.2
Binding of serum 37 to linear peptide (PEPSCAN-ELISA) [4]: 0.6
Binding of serum 37 to looped/cyclic peptides of protein N of SARS-CoV Urbani [4]: 0.5
Binding of serum 62 to linear peptide (PEPSCAN-ELISA) [4]: 0.7
Binding of serum 62 to looped/cyclic peptides of protein N of SARS-CoV Urbani [4]: 0.4
Binding of serum London to linear peptide (PEPSCAN-ELISA) [4]: 0.5
Binding of serum London to looped/cyclic peptides of protein N of SARS-CoV Urbani [4]: 0.4
Binding of serum SARS-green to linear peptide (PEPSCAN-ELISA) [4]: 0.5
Binding of serum SARS-green to looped/cyclic peptides of protein N of SARS-CoV Urbani [4]: 0.3
Binding of serum SARS-yellow to linear peptide (PEPSCAN-ELISA) [4]: 0.6
Binding of serum SARS-yellow to looped/cyclic peptides of protein N of SARS-CoV Urbani [4]: 0.3
